The text below walks through data of patent US11285135B2 (AMGEN INC., priority 2016, dated 2022).

Read-outs that look alike come from different tables or passages of the source.

Assay [1] deals with GDP-bound protein (aa 1-169), containing both G12C and C118A amino acid substitutions (Homo sapiens, UniProt P01116, C118A/G12C). The experiment in a line: Coupled Nucleotide Exchange Assay (SOS-mediated nucleotide exchange, AlphaScreen). Type of assay: biochemical. To be noted: 2 hours compound pre-incubation. As to the method:
Coupled Nucleotide Exchange Assay: Purified GDP-bound […] protein (aa 1-169), containing both G12C and C118A amino acid substitutions and an N-terminal His-tag, was pre-incubated with a compound dose-response titration for 2 hours in assay buffer (25 mM HEPES pH 7.4, 10 mM MgCl2, and 0.01% Triton X-100). Following compound pre-incubation, purified SOS protein (aa 564-1049) and GTP (Roche 10106399001) were added to the assay wells and incubated for an additional hour. […] The assay plates were then read on a PerkinElmer EnVision Multilabel Reader, using AlphaScreen® technology, and data were analyzed using a 4-parameter logistic model to calculate IC50 values.
Background: Alpha assays give light when donor and acceptor beads are brought close together.

For assay [2], the system named is Phosphorylation of ERK½ in A549 cells. The experiment in a line: Phospho-ERK½ MSD Assay in A549 cells. The format is cell-based. To be noted: 4 hours compound treatment, 10 ng/mL EGF for 10 min, read-out: p-ERK IC50 (A549). As to the method: (§1) Phospho-ERK½ MSD Assay: MIA PaCa-2 (ATCC® CRL-1420™) and A549 (ATCC® CCL-185™) cells were cultured in RPMI 1640 Medium (ThermoFisher Scientific 11875093) containing 10% fetal bovine serum (ThermoFisher Scientific 16000044) and 1× penicillin-streptomycin-glutamine (ThermoFisher Scientific 10378016). Sixteen hours prior to compound treatment, MIA PaCa-2 or A549 cells were seeded in 96-well cell culture plates at a density of 25,000 cells/well and incubated at 37° C., 5% CO2. A compound dose-response titration was diluted in growth media, added to appropriate wells of a cell culture plate, and then incubated at 37° C., 5% CO2 for 4 hours. Following compound treatment, cells were stimulated with 10 ng/mL EGF (Roche 11376454001) for 10 min, washed with ice-cold Dulbecco's phosphate-buffered saline, no Ca^2+ or Mg^2+ (ThermoFisher Scientific 14190144), and then lysed in RIPA buffer (50 mM Tris-HCl pH 7.5, 1% Igepal, 0.5% sodium deoxycholate, 150 mM NaCl, and 0.5% sodium dodecyl sulfate) containing protease inhibitors (Roche 4693132001) and phosphatase inhibitors (Roche 4906837001). Cell lysates were stored frozen at −80° C. overnight. Phosphorylation of ERK½ in compound-treated lysates was assayed using Phospho-ERK½ Whole Cell Lysate kits (Meso Scale Discovery K151DWD) according to the manufacturer's protocol. Assay plates were read on a Meso Scale Discovery Sector Imager 6000, and data were analyzed using a 4-parameter logistic model to calculate IC50 values.

The test system of assay [3] is Phosphorylation of ERK½ in MIA PaCa-2 cells. The assay is described as follows: Phospho-ERK½ MSD Assay in MIA PaCa-2 cells. Type of assay: cell-based. To be noted: 4 hours compound treatment, 10 ng/mL EGF for 10 min, read-out: p-ERK IC50 (MIA PaCa-2). As to the method: as §1
The mark [4] stands for this setting: Homo sapiens, MIA PaCa-2, MIA PaCa-2 cells.

Sequence of GDP-bound protein (aa 1-169), containing both G12C and C118A amino acid substitutions (P01116 1-169 isoform P01116-2 G12C/C118A): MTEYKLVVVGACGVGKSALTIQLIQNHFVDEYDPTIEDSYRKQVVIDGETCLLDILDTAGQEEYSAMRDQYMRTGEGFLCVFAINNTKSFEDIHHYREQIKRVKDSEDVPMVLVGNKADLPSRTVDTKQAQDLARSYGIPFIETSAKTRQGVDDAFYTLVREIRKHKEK

A word on the IC50: it is the point on the concentration scale where inhibition reaches its midpoint. As for `C=CC(=O)N1CCN(c2snc3c(F)c(-c4cc(O)cc5ccccc45)c(Cl)cc23)C(CO)C1` (racemic) [Example 1-18, 1-(4-(5-chloro-7-fluoro-6-(3-hydroxy-1-naphthalenyl)-2,1-benzothiazol-3-yl)-3-(hydroxymethyl)-1-piperazinyl)-2-propen-1-one], the “Coupled exchange IC50” value in assay [1] amounted to 370 nM. For the same molecule, the IC50 in assay [2] (Homo sapiens, A549, A549 cells) was greater than 33300 nM; in assay [3] (setting [4]), 559 nM.

In the case of `C=CC(=O)N1CCN(c2snc3nc(-c4c(O)cccc4F)c(Cl)cc23)[C@@H](C)C1` (racemic) [Example 2-3, 1-(4-(5-chloro-6-(2-fluoro-6-hydroxyphenyl)[1,2]thiazo[3,4-b]pyridin-3-yl)-3-methyl-1-piperazinyl)-2-propen-1-one], the “Coupled exchange IC50” value in assay [1] came to 4050 nM. Also, the half-maximal inhibitory concentration (IC50) in assay [2] (Homo sapiens, A549, A549 cells) was greater than 100000 nM; in assay [3] (setting [4]), 6530 nM.

Turning to `C=CC(=O)N1CCN(c2snc3nc(-c4cc(O)cc5ccccc45)c(Cl)cc23)C(C)C1` (racemic) [Example 2-5, 1-(4-(5-chloro-6-(3-hydroxy-1-naphthalenyl)[1,2]thiazolo[3,4-b]pyridin-3-yl)-3-methyl-1-piperazinyl)-2-propen-1-one], the “Coupled exchange IC50” value in assay [1] is 684 nM. Besides, the IC50 in assay [2] (Homo sapiens, A549, A549 cells) was 3700 nM; in assay [3] (setting [4]) it was 5460 nM.

Take `C=CC(=O)N1CCN(c2snc3nc(-c4c(C)ccc5[nH]ncc45)c(Cl)cc23)C(C)C1` (racemic) [Example 2-6, 1-(4-(5-chloro-6-(5-methyl-1H-indazol-4-yl)[1,2]thiazolo[3,4-b]pyridin-3-yl)-3-methyl-1-piperazinyl)-2-propen-1-one]: the “Coupled exchange IC50” value in assay [1] was 1590 nM. Moreover, the IC50 in assay [2] (Homo sapiens, A549, A549 cells) was found to be 3700 nM; in assay [3] (setting [4]), 2970 nM.

Consider `C=CC(=O)N1C[C@@H](C)N(c2snc3c(F)c(-c4cc(O)cc5ccccc45)c(Cl)cc23)[C@H](C)C1` (racemic) [Example 2-7, 1-(4-(5-chloro-7-fluoro-6-(3-hydroxy-1-naphthalenyl)-2,1-benzothiazol-3-yl)-3,5-dimethyl-1-piperazinyl)-2-propen-1-one], for which the “Coupled exchange IC50” value in assay [1] turned out to be 1080 nM. For the same molecule, the IC50 in assay [2] (Homo sapiens, A549, A549 cells) was greater than 33300 nM; in assay [3] (setting [4]), 3870 nM.

Turning to `C=CC(=O)N1CCN(c2snc3c(F)c(-c4c(C)ccc5[nH]ncc45)c(Cl)cc23)[C@H](C(F)F)C1` (racemic) [Example 2-8, 1-(4-(5-chloro-7-fluoro-6-(5-methyl-1H-indazol-4-yl)-2,1-benzothiazol-3-yl)-3-(difluoromethyl)-1-piperazinyl)-2-propen-1-one], the “Coupled exchange IC50” value in assay [1] is 361 nM. In addition, the 50% inhibitory concentration (IC50) in assay [2] (Homo sapiens, A549, A549 cells) is greater than 100000 nM; in assay [3] (setting [4]), 258 nM.

On to `C=CC(=O)N1CCN(c2snc3c(F)c(-c4c(O)cccc4F)c(Cl)cc23)C(C(F)F)C1` (racemic) [Example 2-9, 1-(4-(5-chloro-7-fluoro-6-(2-fluoro-6-hydroxyphenyl)-2,1-benzothiazol-3-yl)-3-(difluoromethyl)-1-piperazinyl)-2-propen-1-one], for which the “Coupled exchange IC50” value in assay [1] was 301 nM. Further, the IC50 in assay [2] (Homo sapiens, A549, A549 cells) was greater than 100000 nM; in assay [3] (setting [4]), 747 nM.

For `C=CC(=O)N1C[C@@H]2[C@H]1CCN2c1snc2c(F)c(-c3cc(O)cc4ccccc34)c(Cl)cc12` (racemic) [Example 5-8, 1-(cis-2-(5-Chloro-7-fluoro-6-(3-hydroxy-1-naphthalenyl)-2,1-benzothiazol-3-yl)-2,6-diazabicyclo[3.2.0]heptan-6-yl)-2-propen-1-one], in assay [1], the “Coupled exchange IC50” value worked out at 433 nM. The IC50 was greater than 33300 nM in assay [2] (Homo sapiens, A549, A549 cells) and 1200 nM in assay [3] (setting [4]).

As for `C=CC(=O)N1CCN(c2snc3c(F)c(-c4cc(O)cc5ccccc45)c(Cl)cc23)[C@@H](C(F)F)C1` (racemic) [Example 7-1], in assay [1], the “Coupled exchange IC50” value came to 299 nM. In addition, the IC50 in assay [2] (Homo sapiens, A549, A549 cells) is greater than 100000 nM; in assay [3] (setting [4]) it was 430 nM.

As to `C=CC(=O)N1CCN(c2snc3c(F)c(-c4cc(O)cc5ccccc45)c(Cl)cc23)[C@@H](CF)C1` (racemic) [Example 7-2, 1-(4-(5-chloro-7-fluoro-6-(3-hydroxy-1-naphthalenyl)-2,1-benzothiazol-3-yl)-3-(fluoromethyl)-1-piperazinyl)-2-pxopen-1-one], the “Coupled exchange IC50” value in assay [1] stood at 180 nM. In addition, the IC50 was greater than 100000 nM in assay [2] (Homo sapiens, A549, A549 cells) and 222 nM in assay [3] (setting [4]).

With `C=CC(=O)N1CCN(c2snc3c(F)c(-c4cc(O)cc5ccccc45)c(Cl)cc23)C(C(=O)OC)C1` (racemic) [Example 7-3, methyl 4-acryloyl-1-(5-chloro-7-fluoro-6-(3-hydroxynaphthalen-1-yl)benzo[c]isothiazol-3-yl)piperazine-2-carboxylate], the “Coupled exchange IC50” value in assay [1] came out at 1730 nM. Further, the IC50 was greater than 100000 nM in assay [2] (Homo sapiens, A549, A549 cells) and 5830 nM in assay [3] (setting [4]).

On to `C=CC(=O)N1CCN(c2nc(=O)n(-c3ccccc3C(C)CC)c3cc(-c4cc(O)cc5ccccc45)c(Cl)cc23)CC1` (racemic) [Example 9-4, 1-(2-(2-butanyl)phenyl)-6-chloro-7-(3-hydroxy-1-naphthalenyl)-4-(4-(2-propenoyl)-1-piperazinyl)-2(1H)-quinazolinone], for which the “Coupled exchange IC50” value in assay [1] was 198 nM. Also, the IC50 in assay [2] (Homo sapiens, A549, A549 cells) worked out at 13000 nM; in assay [3] (setting [4]), 23 nM.

Take `C=CC(=O)N1CCN(c2nc(=O)n([C@H]3CCCCC3(C)C)c3nc(-c4c(O)cccc4F)c(Cl)cc23)CC1` (racemic) [Example 9-14, 6-chloro-1-((1R)-2,2-dimethylcyclohexyl)-7-(2-fluoro-6-hydroxyphenyl)-4-(4-(2-propenoyl)-1-piperazinyl)pyrido[2,3-d]pyrimidin-2(1H)-one|6-chloro-1-((1S)-2,2-dimethylcyclohexyl)-7-(2-fluoro-6-hydroxyphenyl)-4-(4-(2-propenoyl)-1-piperazinyl)pyrido[2,3-d]pyrimidin-2(1H)-one]: in assay [1], the “Coupled exchange IC50” value was determined as 129 nM. For the same molecule, the IC50 was greater than 100000 nM in assay [2] (Homo sapiens, A549, A549 cells) and 344 nM in assay [3] (setting [4]).

In the case of `C=CC(=O)N1CCN(c2snc3c(F)c(-c4cc(O)cc5ccccc45)c(Cl)cc23)[C@@H](C)C1` (single isomer, unassigned) [Example 1-19-1], the “Coupled exchange IC50” value in assay [1] worked out at 115 nM. Besides, the IC50 in assay [2] (Homo sapiens, A549, A549 cells) was greater than 100000 nM; in assay [3] (setting [4]), 368 nM.

Regarding `C=CC(=O)N1CCN(c2snc3c(F)c(-c4cc(O)cc5ccccc45)c(Cl)cc23)[C@@H](C)C1` (single isomer, unassigned) [Example 1-19-2], the “Coupled exchange IC50” value in assay [1] turned out to be 5100 nM. The IC50 in assay [2] (A549 cells) and in assay [3] (MIA PaCa-2 cells) was greater than 100000 nM each time.

Turning to `C=CC(=O)N1CCN(c2snc3nc(-c4cc(O)cc5ccccc45)c(Cl)cc23)C(C)C1` (single isomer, unassigned) [Example 2-5-1, 1-((3S)-4-(5-chloro-6-(3-hydroxy-1-naphthalenyl) [1,2]thiazolo[3,4-b]pyridin-3-yl)-3-methyl-1-piperazinyl)-2-propen-1-one or 1-((3R)-4-(5-chloro-6-(3-hydroxy-1-naphthalenyl) [1,2]thiazolo[3,4-b]pyridin-3-yl)-3-methyl-1-piperazinyl)-2-propen-1-one], the “Coupled exchange IC50” value in assay [1] was 308 nM. Moreover, the IC50 in assay [2] (A549 cells) is greater than 100000 nM; in assay [3] (MIA PaCa-2 cells), 1140 nM.

Regarding `C=CC(=O)N1CCN(c2snc3nc(-c4cc(O)cc5ccccc45)c(Cl)cc23)C(C)C1` (single isomer, unassigned) [Example 2-5-2, 1-((3R)-4-(5-chloro-6-(3-hydroxy-1-naphthalenyl) [1,2]thiazolo[3,4-b]pyridin-3-yl)-3-methyl-1-piperazinyl)-2-propen-1-one or 1-((3S)-4-(5-ch1oro-6-(3-hydroxy-1-naphthalenyl) [1,2]thiazolo[3,4-b]pyridin-3-yl)-3-methyl-1-piperazinyl)-2-propen-1-one], in assay [1], the “Coupled exchange IC50” value came out at 1350 nM. The IC50 in assay [2] (A549 cells) amounted to 3700 nM; in assay [3] (MIA PaCa-2 cells) it was 7480 nM.
